Assay results taken from patent publication US8198273B2, “Compounds and methods for kinase modulation, and indications therefor” (Plexxikon Inc., priority 2009, dated 2012).

Tests used:
CYP3A4(BFC) = CYP3A4(BFC) (Homo sapiens, UniProt P08684); assay: CYP3A4(BFC) inhibition (fluorescent substrate); format: in vitro ADME; conditions: read-out: Cyp IC50 3A4(BFC)
Procedure, shortened: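 Inhibition was followed as loss of fluorescent metabolite from a known substrate, with compound in co-factor mix as a 10-point 1:1 serial dilution (100 mM DMSO stock).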

[1] = system: SKMEL2 melanoma cells (Ras mutation); assay: SKMEL2 cell growth inhibition (ATPlite); format: cell-based; conditions: Homo sapiens, SK-MEL-2, 72 h; SKMEL2, 3 days incubation
Procedure, shortened: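 SKMEL2 cells seeded at 2,000 per well overnight, then exposed to an 8-point 1:3 compound titration (top 10 μM final) for 3 days at 37 °C. ATPlite luminescence used as a measure of cell number to derive IC50.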

CYP2C9 = CYP2C9 (Homo sapiens, UniProt P11712); assay: CYP2C9 inhibition (fluorescent substrate); format: in vitro ADME; conditions: CYP2C9, MFC substrate; read-out: Cyp IC50 2C9
Procedure, shortened: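 Human CYP activity was followed by the fluorescence of the metabolized product of a known substrate, which falls as metabolism is inhibited. Compounds from 100 mM DMSO stocks were serially diluted 1:1 over 10 points in co-factor mix and preincubated 10 min at 37 °C. IC50 was fitted from signal versus concentration.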

B-Raf V600E = B-Raf V600E (Homo sapiens, UniProt P15056, V600E); assay: B-Raf V600E biochemical kinase inhibition (AlphaScreen, biotin-MEK1 substrate); conditions: 100 μM ATP
Procedure, shortened: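 Raf kinases phosphorylating biotin-MEK1, reaction started with ATP at 100 μM final. Compounds tested at 8 points by serial dilution from a 0.1 mM DMSO stock.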

Chain of CYP2C9 (P11712 whole entry): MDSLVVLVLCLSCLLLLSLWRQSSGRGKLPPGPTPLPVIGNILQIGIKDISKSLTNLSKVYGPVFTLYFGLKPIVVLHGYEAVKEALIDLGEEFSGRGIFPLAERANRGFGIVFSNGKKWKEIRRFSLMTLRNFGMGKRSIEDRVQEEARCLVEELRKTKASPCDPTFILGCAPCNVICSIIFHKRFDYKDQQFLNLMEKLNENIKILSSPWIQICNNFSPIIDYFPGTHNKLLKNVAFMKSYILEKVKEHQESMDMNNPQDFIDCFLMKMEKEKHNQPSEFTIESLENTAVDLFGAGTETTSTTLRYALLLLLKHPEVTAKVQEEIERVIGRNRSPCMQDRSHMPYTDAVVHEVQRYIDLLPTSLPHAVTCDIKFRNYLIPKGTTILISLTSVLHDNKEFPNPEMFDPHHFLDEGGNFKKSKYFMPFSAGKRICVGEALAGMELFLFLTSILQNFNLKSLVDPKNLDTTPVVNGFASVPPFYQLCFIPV
Chain of B-Raf V600E (P15056 whole entry V600E): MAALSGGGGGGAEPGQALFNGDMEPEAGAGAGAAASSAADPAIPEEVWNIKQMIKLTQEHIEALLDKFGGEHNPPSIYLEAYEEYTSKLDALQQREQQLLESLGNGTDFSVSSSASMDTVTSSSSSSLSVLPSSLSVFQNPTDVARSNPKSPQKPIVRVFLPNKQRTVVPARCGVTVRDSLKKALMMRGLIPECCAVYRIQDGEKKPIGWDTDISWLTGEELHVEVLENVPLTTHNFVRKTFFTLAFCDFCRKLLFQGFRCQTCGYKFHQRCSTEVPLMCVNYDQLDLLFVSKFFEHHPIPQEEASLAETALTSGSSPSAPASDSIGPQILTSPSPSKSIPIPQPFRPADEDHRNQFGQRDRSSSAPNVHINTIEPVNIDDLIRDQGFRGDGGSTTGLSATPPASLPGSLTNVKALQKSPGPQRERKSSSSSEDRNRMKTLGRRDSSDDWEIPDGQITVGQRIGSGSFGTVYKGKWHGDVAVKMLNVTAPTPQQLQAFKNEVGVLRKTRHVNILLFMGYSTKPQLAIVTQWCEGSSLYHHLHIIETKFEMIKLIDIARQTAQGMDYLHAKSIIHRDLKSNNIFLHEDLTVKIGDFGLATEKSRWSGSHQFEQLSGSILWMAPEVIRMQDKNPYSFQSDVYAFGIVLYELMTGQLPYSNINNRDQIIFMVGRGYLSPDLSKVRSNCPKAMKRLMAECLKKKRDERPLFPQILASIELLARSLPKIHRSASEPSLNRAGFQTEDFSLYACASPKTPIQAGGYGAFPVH
Chain of CYP3A4(BFC) (P08684 whole entry): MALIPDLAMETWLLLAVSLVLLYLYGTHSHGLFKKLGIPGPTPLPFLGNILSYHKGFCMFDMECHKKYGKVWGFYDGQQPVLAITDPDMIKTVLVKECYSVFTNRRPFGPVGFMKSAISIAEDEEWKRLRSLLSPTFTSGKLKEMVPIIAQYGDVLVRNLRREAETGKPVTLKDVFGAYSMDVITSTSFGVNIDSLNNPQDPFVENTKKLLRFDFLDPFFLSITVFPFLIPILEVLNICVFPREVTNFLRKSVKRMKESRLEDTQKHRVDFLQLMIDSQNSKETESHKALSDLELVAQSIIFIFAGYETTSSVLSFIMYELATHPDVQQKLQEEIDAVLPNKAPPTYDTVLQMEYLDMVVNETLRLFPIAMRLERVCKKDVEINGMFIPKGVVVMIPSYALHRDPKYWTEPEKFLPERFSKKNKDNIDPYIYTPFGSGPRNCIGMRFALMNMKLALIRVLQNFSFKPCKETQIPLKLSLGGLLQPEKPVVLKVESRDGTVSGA

| IC50 (CYP3A4(BFC)) [µM] | IC50 [1] [µM] | IC50 (CYP2C9) [µM] | IC50 (B-Raf V600E) [µM] | Compound |
| --- | --- | --- | --- | --- |
| > 10 | < 5 | 5 to 10 | < 0.01 | CCCS(=O)(=O)Nc1ccc(F)c(C(=O)c2c[nH]c3ncc(-c4ccc(S(=O)(=O)NC)cc4)cc23)c1F [P-2167, 4-{3-[2,6-Difluoro-3-(propane-1-sulfonylamino)-benzoyl]-1H-pyrrolo[2,3-b]pyridin-5-yl}-N-methyl-benzenesulfonamide] |
| > 10 | < 20 | > 10 | < 0.01 | CCCS(=O)(=O)Nc1ccc(F)c(C(=O)c2c[nH]c3ncc(-c4ccc(F)nc4)cc23)c1F [P-2155, Propane-1-sulfonic acid {2,4-difluoro-3-[5-(6-fluoro-pyridin-3-yl)-1H-pyrrolo[2,3-b]pyridine-3-carbonyl]-phenyl}-amide] |
| > 10 | > 10 | > 10 | < 0.01 | Cc1cnc2[nH]cc(C(=O)c3c(F)ccc(NS(=O)(=O)c4ccccc4F)c3F)c2c1 [P-2014, N-[2,4-Difluoro-3-(5-methyl-1H-pyrrolo[2,3-b]pyridine-3-carbonyl)-phenyl]-2-fluoro-benzenesulfonamide] |
| > 10 | > 10 | > 10 | < 0.01 | N#Cc1ccnc2[nH]cc(C(=O)c3c(F)ccc(NS(=O)(=O)c4cc(F)ccc4F)c3F)c12 [P-2036, N-[3-(4-Cyano-1H-pyrrolo[2,3-b]pyridine-3-carbonyl)-2,4-difluoro-phenyl]-2,5-difluoro-benzenesulfonamide] |
| > 10 | > 10 | > 10 | < 0.01 | N#Cc1ccnc2[nH]cc(C(=O)c3c(F)ccc(NS(=O)(=O)c4c(F)cccc4F)c3F)c12 [P-2037, N-[3-(4-Cyano-1H-pyrrolo[2,3-b]pyridine-3-carbonyl)-2,4-difluoro-phenyl]-2,6-difluoro-benzenesulfonamide] |
| > 10 | > 10 | < 5 | < 0.01 | Cc1cnc2[nH]cc(C(=O)c3c(F)ccc(NS(=O)(=O)c4cccc(F)c4)c3F)c2c1 [P-2016, N-[2,4-Difluoro-3-(5-methyl-1H-pyrrolo[2,3-b]pyridine-3-carbonyl)-phenyl]-3-fluoro-benzenesulfonamide] |
| 5 to 10 | > 10 | < 5 | < 0.01 | N#Cc1cnc2[nH]cc(C(=O)c3cccc(NS(=O)(=O)c4cc(F)ccc4F)c3F)c2c1 [P-2052, N-[3-(5-Cyano-1H-pyrrolo[2,3-b]pyridine-3-carbonyl)-2-fluoro-phenyl]-2,5-difluoro-benzenesulfonamide] |
| 5 to 10 | > 10 | > 10 | < 0.01 | CCCS(=O)(=O)Nc1ccc(F)c(C(=O)c2c[nH]c3ncc(-c4ccc(NC(C)=O)nc4)cc23)c1F [P-2193, N-(5-{3-[2,6-Difluoro-3-(propane-1-sulfonylamino)-benzoyl]-1H-pyrrolo[2,3-b]pyridin-5-yl}-pyridin-2-yl)-acetamide] |
| 5 to 10 | > 10 | > 10 | < 0.01 | N#Cc1cnc2[nH]cc(C(=O)c3c(F)ccc(NS(=O)(=O)c4cccnc4)c3F)c2c1 [P-2072, Pyridine-3-sulfonic acid [3-(5-cyano-1H-pyrrolo[2,3-b]pyridine-3-carbonyl)-2,4-difluoro-phenyl]-amide] |
| > 10 | > 10 | > 10 | < 0.01 | N#Cc1cnc2[nH]cc(C(=O)c3c(F)ccc(NS(=O)(=O)c4c(F)cccc4F)c3F)c2c1 [P-2029, N-[3-(5-Cyano-1H-pyrrolo[2,3-b]pyridine-3-carbonyl)-2,4-difluoro-phenyl]-2,6-difluoro-benzenesulfonamide] |
| > 10 | > 10 | 5 to 10 | < 0.01 | O=C(c1c(F)ccc(NS(=O)(=O)c2cc(F)ccc2F)c1F)c1c[nH]c2ncc(Cl)cc12 [P-2002, N-[3-(5-Chloro-1H-pyrrolo[2,3-b]pyridine-3-carbonyl)-2,4-difluoro-phenyl]-2,5-difluoro-benzenesulfonamide] |
| > 10 | > 10 | > 10 | < 0.01 | N#Cc1ccnc2[nH]cc(C(=O)c3c(F)ccc(NS(=O)(=O)c4cccc(F)c4)c3F)c12 [P-2039, N-[3-(4-Cyano-1H-pyrrolo[2,3-b]pyridine-3-carbonyl)-2,4-difluoro-phenyl]-3-fluoro-benzenesulfonamide] |
| > 10 | > 10 | > 10 | < 0.01 | COc1cnc2[nH]cc(C(=O)c3c(F)ccc(NS(=O)(=O)c4cc(F)ccc4F)c3F)c2c1 [P-2010, N-[2,4-Difluoro-3-(5-methoxy-1H-pyrrolo[2,3-b]pyridine-3-carbonyl)-phenyl]-2,5-difluoro-benzenesulfonamide] |
| > 10 | > 10 | > 10 | < 0.1 | CCCS(=O)(=O)Nc1ccc(F)c(C(=O)c2c[nH]c3ncc(-c4ccc(S(=O)(=O)CC)cc4)cc23)c1F [P-2218, Propane-1-sulfonic acid {3-[5-(4-ethanesulfonyl-phenyl)-1H-pyrrolo[2,3-b]pyridine-3-carbonyl]-2,4-difluoro-phenyl}-amide] |
| < 5 | > 10 | 5 to 10 | < 0.01 | CCCS(=O)(=O)Nc1ccc(F)c(C(=O)c2c[nH]c3ncc(-c4cnc(N(C)C)nc4)cc23)c1F [P-2196, Propane-1-sulfonic acid {3-[5-(2-dimethylamino-pyrimidin-5-yl)-1H-pyrrolo[2,3-b]pyridine-3-carbonyl]-2,4-difluoro-phenyl}-amide] |
| > 10 | < 5 | > 10 | < 0.01 | CCCS(=O)(=O)Nc1ccc(F)c(C(=O)c2c[nH]c3ncc(-c4ccc(S(=O)(=O)N5CCOCC5)cc4)cc23)c1F [P-2166, Propane-1-sulfonic acid (2,4-difluoro-3-{5-[4-(morpholine-4-sulfonyl)-phenyl]-1H-pyrrolo[2,3-b]pyridine-3-carbonyl}-phenyl)-amide] |
| > 10 | > 10 | > 10 | < 0.01 | O=C(c1c(F)ccc(NS(=O)(=O)c2ccccc2F)c1F)c1c[nH]c2nccc(Cl)c12 [P-2017, N-[3-(4-Chloro-1H-pyrrolo[2,3-b]pyridine-3-carbonyl)-2,4-difluoro-phenyl]-2-fluoro-benzenesulfonamide] |
| > 10 | > 10 | 5 to 10 | < 0.01 | N#Cc1cnc2[nH]cc(C(=O)c3cccc(NS(=O)(=O)c4ccccc4F)c3F)c2c1 [P-2051, N-[3-(5-Cyano-1H-pyrrolo[2,3-b]pyridine-3-carbonyl)-2-fluoro-phenyl]-2-fluoro-benzenesulfonamide] |

| Compound | IC50 (CYP3A4(BFC)) [µM] | IC50 [1] [µM] | IC50 (CYP2C9) [µM] | IC50 (B-Raf V600E) [µM] |
| --- | --- | --- | --- | --- |
| CCCS(=O)(=O)Nc1ccc(F)c(C(=O)c2c[nH]c3ncc(-c4ccc(NS(C)(=O)=O)cc4)cc23)c1F [P-2165, Propane-1-sulfonic acid {2,4-difluoro-3-[5-(4-methanesulfonylamino-phenyl)-1H-pyrrolo[2,3-b]pyridine-3-carbonyl]-phenyl}-amide] | > 10 | < 10 | 5 to 10 | < 0.01 |
